Literature values as cited in patent CN104306347A, “一种卡维地洛双层缓释片及其制备方法” (BEIJING D-VENTUREPHARM TECHNOLOGY DEVELOPMENT Co Ltd, priority 2014, dated 2015).

How the values were obtained:
[1] = in vivo

## COc1ccccc1OCCNCC(O)COc1cccc2[nH]c3ccccc3c12 (stereo not shown) [卡维地洛]
After oral administration
  first-pass effect: 有明显的首过效应
  oral absorption: 易于吸收
In vivo
  elimination phase half-life (t1/2b): 7~10 h
  excretion in urine as unchanged drug: < 2%
  plasma clearance: 500~700 ml/min
  steady-state volume of distribution: ~1.5 L
Metabolites excreted via bile then faeces
  metabolism: 代谢完全
oral
  absolute bioavailability (F): 25%~35%
Taken with food
  absorption when taken with food: 吸收减慢
  relative bioavailability when taken with food: 没有明显影响
[1]
  incidence of adverse reactions: 很低
  risk of postural hypotension when taken with food: 可减少引起体位性低血压的危险性
  tolerability: 耐受性良好
